Test results published in patent US8349835B2, “Aromatic ring fused triazine derivatives and uses thereof” (Shenyang Pharmaceutical University, priority 2008, dated 2013).
Values belong to the compound of their own block, whether it stands above or below them.

Columns and labels:
[1] = test system: chorioallantoic membrane vessels; assay: Activity test by chick chorioallantoic membrane method; assay type: in vivo; conditions: 5 uL medicine on cellulose membrane, chick embryo, 2 days
Procedure: After the shell membrane became wet, tore it open with ophthalmological tweezers so to expose the chorioallantoic membrane. • 6) Added 5 uL of selected medicine to a 0.5×0.5 cm cellulose membrane sterilized by high pressure, then set the membrane on the part of the chorioallantoic membrane with fewer vessels • 7) Closed the window, and put the embryos back into the hatch box to hatch for 2 days. • 8) Opened the transparent tape, and then opened the mixed cellulose membrane lightly with a tweezers. Measured the avascular area and took photographs.

[2] = test system: Rat aortic ring; assay: Rat Aortic Ring Assay; assay type: cell-based; conditions: for Rat Aortic Ring Assay (10 ug/ml), result in words: observed on the sixth day; for inhibition at 10 µg/mL: Rattus norvegicus, 10 ug/ml, compared with blank control, sixth day
Excerpt: Rat Aortic Ring Assay • 1) 6 week old SD […] (Sprague Dawley) were selected for the experiments. Cleaned abdominal skin with 75% ethanol to disinfect, and then anesthetized the mice with ether, • 2) Carefully removed the abdominal aortas and transferred the aortas to normal saline. Excessive vascular tissues were carefully removed with scissors. • 3) The aortas were rinsed with normal saline until no blood stain remained. • 4) Sectioned the aortas into one millimeter depth arterial slices with ophthalmological scissors. • 5) Add 50 μL pre-thawed Matrigel to each well of the pre-cooled 96 well cell culture plates, and embedded the ring-shaped mouse aortas in collagen gel. • 6) Incubated for 60 minutes at 37° C. to solidificate the gel. • 7) Added DMEM culture solution containing 10% FBS, along with different concentrations of the selected compounds into the wells and cultured in the incubator. Every compound was repeated in no less than 3 wells. • 8) Replaced with the fresh medium and changed the medicine once on the third day. • 9) Took out the pates on the sixth day, and observed the vascular growth with Microscope (OLYMPUS, DP70, Japan) and took photographs(×100). Randomly chose 3 arterial rings to photograph and calculated the area covered by micro-vascular with Image Pro Plus software. The inhibition rate is calculated as:
[formula] • Evaluation criteria: ⋆inhibition rate[…]; ⋆⋆inhibition rate 60-90%; ⋆⋆⋆inhibition rate>90%.

[3] = target: VEGFR-2 (Homo sapiens, UniProt P35968); assay: VEGFR-2 inhibition rate test (kinase assay kit, colorimetric ELISA); conditions: concentration not given
VEGFR-2, sequence (P35968 20-1356): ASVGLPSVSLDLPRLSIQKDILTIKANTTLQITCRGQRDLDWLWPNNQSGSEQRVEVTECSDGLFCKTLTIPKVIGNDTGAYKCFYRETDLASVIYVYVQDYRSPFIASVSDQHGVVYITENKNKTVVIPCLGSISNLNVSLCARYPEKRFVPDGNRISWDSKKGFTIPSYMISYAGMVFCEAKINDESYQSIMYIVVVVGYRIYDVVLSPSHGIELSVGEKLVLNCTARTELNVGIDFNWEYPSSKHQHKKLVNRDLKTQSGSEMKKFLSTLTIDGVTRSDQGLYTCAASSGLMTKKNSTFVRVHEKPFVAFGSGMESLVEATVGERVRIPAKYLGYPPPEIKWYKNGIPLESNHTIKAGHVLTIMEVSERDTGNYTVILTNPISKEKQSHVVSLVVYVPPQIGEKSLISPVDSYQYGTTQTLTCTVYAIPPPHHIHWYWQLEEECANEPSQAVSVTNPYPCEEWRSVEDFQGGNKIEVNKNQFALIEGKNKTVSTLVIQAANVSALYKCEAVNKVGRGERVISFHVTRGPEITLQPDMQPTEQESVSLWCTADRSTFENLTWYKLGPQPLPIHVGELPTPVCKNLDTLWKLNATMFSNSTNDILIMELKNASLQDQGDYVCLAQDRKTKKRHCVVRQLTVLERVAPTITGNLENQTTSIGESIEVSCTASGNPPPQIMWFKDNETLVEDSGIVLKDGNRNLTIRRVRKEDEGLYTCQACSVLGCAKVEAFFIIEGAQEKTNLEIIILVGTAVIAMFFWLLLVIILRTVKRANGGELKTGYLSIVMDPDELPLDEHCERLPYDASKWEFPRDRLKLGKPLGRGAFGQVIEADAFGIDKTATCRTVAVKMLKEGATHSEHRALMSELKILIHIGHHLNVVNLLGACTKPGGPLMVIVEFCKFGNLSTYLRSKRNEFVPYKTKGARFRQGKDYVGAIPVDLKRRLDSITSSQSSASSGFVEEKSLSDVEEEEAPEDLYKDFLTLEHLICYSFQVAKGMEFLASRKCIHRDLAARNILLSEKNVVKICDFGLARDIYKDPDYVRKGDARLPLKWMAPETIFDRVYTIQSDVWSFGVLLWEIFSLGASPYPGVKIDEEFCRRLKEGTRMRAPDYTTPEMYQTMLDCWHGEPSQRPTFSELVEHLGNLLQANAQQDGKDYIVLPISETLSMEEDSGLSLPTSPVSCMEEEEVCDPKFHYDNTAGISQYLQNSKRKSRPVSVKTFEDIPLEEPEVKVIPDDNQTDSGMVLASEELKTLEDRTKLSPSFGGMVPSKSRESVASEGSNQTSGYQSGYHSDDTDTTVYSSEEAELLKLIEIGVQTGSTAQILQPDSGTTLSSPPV

[4] = test system: Microvascular Endothelial Cells (MVEC); assay: MTT growth inhibition of MVEC; assay type: cell-based; conditions: Endothelial cell, 96 h, 4 days culture with drug, read-out: IG50 on inhibiting growth of MVEC
Procedure: In Vitro Anti-Tumor Activity Test
Put cell suspension into centrifugal tubes with a pipette under sterile conditions, then the cell suspension was centrifuged for 3 minutes at 1300 rpm. Discarded the supernatant lightly and added fresh culture medium. Mixed the cells by pipetting, then transferred the cells into culture flasks, and put them into the CO2 incubator. Changed the culture medium once after 24 hours.
Human prostate cancer cells (DU145, PC-3) were cultured in a medium containing RPMI1640 basic medium supplemented with 10% heat-inactivated FBS, 100 IU/mL penicillin, 100 μg/mL streptomycin and 1 mmol/L L-glutamine. Human breast carcinoma cells (T47D, MDA-MB231) were cultured in a medium containing RPM11640 basic medium supplemented with 10% heat-inactivated FBS, 5 μg/mL insulin, 100 IU/mL penicillin, 100 μg/mL streptomycin and 1 mmol/L L-glutamine. Human breast carcinoma cells (MCF-7) were cultured in a medium containing DMEM basic medium supplemented with 10% heat-inactivated FBS, 5 μg/mL insulin, 100 IU/mL penicillin, 100 μg/mL streptomycin and […]. Murine Lewis lung cancer cells (LL/2), murine melanoma cells (B16FD) and Microvascular Endothelial Cells (MVEC) were cultured in a medium containing DMEM basic medium supplemented with 10% heat-inactivated FBS, 4.5 g/L glucose, 1.5 g/L NaHCO3, 100 IU/mL penicillin, 100 μg/mL streptomycin and 4 mmol/L L-glutamine. All these cell lines were incubated at 37° C. biochemical incubator with 5% CO2 saturated humidity.
After resuscitation, the cells were passed for 2-3 generations till they became stable, then they were used for the experiments. Each passage was based on the standard that all cells were spread over the bottoms of culture flasks.
Cells were digested off from the bottoms of culture flasks with trypsin (0.25%). The cell dissociation buffer was transferred into centrifuge tubes, added medium to stop the digestion, and centrifuged for 3 minutes at 1300 rpm. Discarded the supernatant lightly and added fresh culture medium (5 mL). Mixed the cells by pipetting, then added 10 μL of the cell suspension into the cell counting plate, and adjusted the cell concentration to 2×10^4 cells/mL. Added 100 μL of the cell suspension to all wells on the 96 well plates, except A1 well as the blank control. Put the plates into the biochemical incubator for 24 hours and to make sure the cells grew along the walls.
The drugs were dissolved in 80 mmol/L DMSO first, and then diluted the drugs with ethanol to 8 mmol/L. The solution was further diluted with the culture medium to different concentrations as 160 μmol/L, 120 μmol/L, 80 μmol/L, 40 μmol/L, 20 μmol/L and 10 μmol/L. Added 100 μL of the drug solution to each well on the 96 well plates. Therefore, the final concentrations of the drugs that were added to the cells were 80 μmol/L, 40 μmol/L, 20 μmol/L, 10 μmol/L and 5 μmol/L, and each concentration were repeated in three parallel wells. Put the culture plates into the biochemical incubator to culture continuously for 4 days.
Added 50 μL MTT liquids (2 mg/mL) into each well, put the culture plates into the biochemical incubator for 4 h, discarded MTT liquids (TCC), added 200 μL DMSO, then oscillated for 10 minutes on the magnetic oscillator to make sure that the survived cells and the reaction product of MTT were fully dissolved. Detected and recorded the absorbance (OD) values of each well at the wavelength of 570 nm using the microplate reader. The OD values of cells without tested drugs were used as control. The cell growth inhibition rates under each drug concentration were calculated by the following formula. […] Inhibition rate of growth(%)=(1−The absorbance(OD)of cells with tested drugs/The absorbance(OD)of the blank control group)×100%
The absorbance (OD) of cells with tested drugs: OD value is measured with the test drugs.
The absorbance (OD) of the blank control group: OD value is measured without the test drugs. […]

Compound: Clc1cccc(Nc2nnnc3ccccc23)c1 [Example 4, 4-(3-chloroanilino)-benzo[d][1,2,3]triazine]
The inhibitory effect on the growth of chorioallantoic membrane vessels [1]: The vascular growth is abundant | Kinase inhibition rate (VEGFR-2) [3]: 12.83

Compound: CCCCOc1cc2nnnc(Nc3cccc(Cl)c3)c2cc1OC [Example 21, 6-methoxy-7-n-butoxy-4-(3-chloroanilino)-benzo[d][1,2,3]triazine]
The inhibitory effect on the growth of chorioallantoic membrane vessels [1]: The vessels covered by paper become thinner, and another embryo is dead. | Rat Aortic Ring Assay (10 ug/ml), result in words [2]: No significant inhibition | Kinase inhibition rate (VEGFR-2) [3]: 2.40

Compound: CCCCCOc1cc2nnnc(Nc3ccc(F)cc3)c2cc1OC [Example 59, 6-methoxy-7-pentyloxy-4-(4-fluoroanilino)-benzo[d][1,2,3]triazine]
The inhibitory effect on the growth of chorioallantoic membrane vessels [1]: The vessels become fewer, but not thinner. The medicine precipitates out. | Rat Aortic Ring Assay (10 ug/ml), result in words [2]: No significant inhibition

Compound: CCOc1cc2nnnc(Nc3ccccc3F)c2cc1OC [Example 41, 6-methoxy-7-ethoxy-4-(2-fluoroanilino)-benzo[d][1,2,3]triazine]
The inhibitory effect on the growth of chorioallantoic membrane vessels [1]: One embryo is dead, and the other exhibits no significant inhibition | Rat Aortic Ring Assay (10 ug/ml), result in words [2]: No significant inhibition

Compound: CCOc1cc2nnnc(Nc3cccc(C(F)(F)F)c3)c2cc1OC [Example 34, 6-methoxy-7-ethoxy-4-(3-trifluoromethylanilino)-benzo[d][1,2,3]triazine]
The inhibitory effect on the growth of chorioallantoic membrane vessels [1]: One of the two samples exhibits significant inhibition zone, and the other | inhibition at 10 µg/mL [2]: > 80%

Compound: CCOc1cc2nnnc(Nc3cccc(Cl)c3)c2cc1OC [Example 38, 6-methoxy-7-ethoxy-4-(3-chloroanilino)-benzo[d][1,2,3]triazine]
The inhibitory effect on the growth of chorioallantoic membrane vessels [1]: One embryo is dead. | Rat Aortic Ring Assay (10 ug/ml), result in words [2]: No significant inhibition

Compound: Clc1ccc(Nc2nnnc3ncc(Cl)cc23)cc1 [Example 83, 6-chloro-4-(4-chloroanilino)pyrido[3,2][1,2,3]triazine]
IC50 [4]: 10.5 µM | Rat Aortic Ring Assay (10 ug/ml), result in words [2]: No significant inhibition | Kinase inhibition rate (VEGFR-2) [3]: 23.56

Compound: CCCCOc1cc2nnnc(Nc3cc(Cl)cc(Cl)c3)c2cc1OC [Example 13, 6-methoxy-7-n-butoxy-4-(3,5-dichloroanilino)-benzo[d][1,2,3]triazine]
IC50 [4]: 3.17 µM | Rat Aortic Ring Assay (10 ug/ml), result in words [2]: No significant inhibition | Kinase inhibition rate (VEGFR-2) [3]: −9.89

Compound: CCOc1cc2nnnc(Nc3cccc(Br)c3)c2cc1OC [Example 42, 6-methoxy-7-ethoxy-4-(3-bromoanilino)-benzo[d][1,2,3]triazine]
The inhibitory effect on the growth of chorioallantoic membrane vessels [1]: One of the two samples exhibits inhibition | inhibition at 10 µg/mL [2]: ~40%

Compound: CCCCOc1cc2nnnc(Nc3ccc(OC(F)(F)F)cc3)c2cc1OC [Example 20, 6-methoxy-7-n-butoxy-4-(4-trifluoromethoxyanilino)-benzo[d][1,2,3]triazine]
The inhibitory effect on the growth of chorioallantoic membrane vessels [1]: One of the two samples exhibits significant inhibition, and the other | Rat Aortic Ring Assay (10 ug/ml), result in words [2]: Cell proliferation and migration were not significantly affected,

Continued, in another order:

Kinase inhibition rate (VEGFR-2) [3]: −33.42
Compound: FC(F)(F)Oc1ccc(Nc2nnnc3ccccc23)cc1 [Example 6, 4-(4-trifluoromethoxyanilino)-benzo[d][1,2,3]triazine]
The inhibitory effect on the growth of chorioallantoic membrane vessels [1]: One of the two samples exhibits significant fracture, | Rat Aortic Ring Assay (10 ug/ml), result in words [2]: No significant inhibition

Kinase inhibition rate (VEGFR-2) [3]: 1.51
Compound: COc1cc2c(Nc3ccc(C(F)(F)F)cc3)nnnc2cc1OCCCCl [Example 68, 6-methoxy-7-chloropropoxy-4-(4-trifluoromethylanilino)-benzo[d][1,2,3]triazine]
The inhibitory effect on the growth of chorioallantoic membrane vessels [1]: Two samples exhibit inhibition at the zone covered by paper. | Rat Aortic Ring Assay (10 ug/ml), result in words [2]: Vascular growth is significantly inhibited

Kinase inhibition rate (VEGFR-2) [3]: −18.71
Compound: CCCCCOc1cc2nnnc(Nc3ccc(C(F)(F)F)cc3)c2cc1OC [Example 51, 6-methoxy-7-pentyloxy-4-(4-trifluoromethylanilino)-benzo[d][1,2,3]triazine]
The inhibitory effect on the growth of chorioallantoic membrane vessels [1]: The samples exhibit significant inhibition ring. | Rat Aortic Ring Assay (10 ug/ml), result in words [2]: No significant inhibition

Kinase inhibition rate (VEGFR-2) [3]: 46.67
Compound: CCOc1cc2nnnc(Nc3ccc(F)c(Cl)c3)c2cc1OC [Example 39, 6-methoxy-7-ethoxy-4-(3-chloro-4-fluoroanilino)-benzo[d][1,2,3]triazine]
The inhibitory effect on the growth of chorioallantoic membrane vessels [1]: One embryo is dead, and the other exhibits no significant inhibition | Rat Aortic Ring Assay (10 ug/ml), result in words [2]: No significant inhibition

Kinase inhibition rate (VEGFR-2) [3]: 0.26
Compound: COc1cc2c(Nc3ccccc3F)nnnc2cc1OCCCCl [Example 74, 6-methoxy-7-chloropropoxy-4-(2-fluoroanilino)-benzo[d][1,2,3]triazine]
The inhibitory effect on the growth of chorioallantoic membrane vessels [1]: The vessels become rare and are fractured at the zone covered by paper. | Rat Aortic Ring Assay (10 ug/ml), result in words [2]: Vessel density was small, cells were elongated and cell

Kinase inhibition rate (VEGFR-2) [3]: 19.78
Compound: Fc1ccccc1Nc1nnnc2ccccc12 [Example 3, 4-(2-fluoroanilino)-benzo[d][1,2,3]triazine]
The inhibitory effect on the growth of chorioallantoic membrane vessels [1]: Significant inhibition in two of three samples, | Rat Aortic Ring Assay (10 ug/ml), result in words [2]: No significant inhibition

Kinase inhibition rate (VEGFR-2) [3]: 3.58
Compound: COc1cc2c(Nc3ccccc3)nnnc2cc1OCCCCl [Example 61, 6-methoxy-7-chloropropoxy-4-anilino-benzo[d][1,2,3]triazine]
The inhibitory effect on the growth of chorioallantoic membrane vessels [1]: One sample exhibits inhibition ring at the zone covered by paper. | Rat Aortic Ring Assay (10 ug/ml), result in words [2]: No significant inhibition
